According to patent US20260049072A1, “HETEROCYCLIC COMPOUND FOR INDUCING DEGRADATION OF MUTANT KRAS PROTEIN” (Astellas Pharma Inc., priority 2022, published 2026):
Read-outs that look alike come from different tables or passages of the source.

What was measured:
PA-TU-8902 cells = assay: Non-anchorage-dependent cell growth inhibition (spheroid 3D culture), PA-TU-8902; type: cell-based, human; details: Homo sapiens, PaTu 8902, 144 h, read-out: PA-TU-8902 IC50
How it was run: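 Human pancreatic lines (PA-TU-8902 KRAS G12V, AsPC-1 G12D, MIA PaCa-2 G12C) grown as spheroids at 5×10^2 cells/well in low-adhesion round-bottom plates; MIA PaCa-2 in RPMI-1640 with 10% FBS. Compounds added next day (6-9 points, 3 μM to 0.3 nM final) for six days at 37 °C, 5% CO2. CellTiter-Glo luminescence, IC50 by Sigmoid-Emax regression versus DMSO and cell-free controls.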

RAS G12V = target: T1, RAS G12V (Homo sapiens, UniProt P01116, G12V); assay: RAS G12V degradation activity, Cell ELISA, PA-TU-8902; type: cell-based; details: PA-TU-8902 cells, 24 hours, 100% = Example compound 17 at 1 μM; read-out: DC50 (RAS G12V 50% degradation value)
T1 construct: host or cells: PA-TU-8902 human pancreatic cancer cells
Procedure: Test Example 1-1: Evaluation of RAS G12V Degradation Activity on Human KRAS G12V Mutant-Positive Pancreatic Cancer Line PA-TU-8902
The RAS G12V degradation activities of subject compounds were evaluated by measuring the expression levels of RAS G12V by a Cell ELISA method.
PA-TU-8902 cells (DSMZ, ACC 179) were seeded at 36 μL per well on a 384-well plate (from Greiner bio-one) to give 1.5×10^4 cells per well. As for the cell culture conditions, DMEM medium (from Sigma-Aldrich) containing 10% fetal bovine serum (from Cytiva) was used in the presence of 5% CO2 at 37° C.
The next day, the subject compounds (10 points having final concentrations in the range of 3 μM to 0.1 nM), Example compound 17 of a final concentration of 1 μM as a positive control and dimethyl sulfoxide (DMSO), which was the solvent for the subject compounds, as a negative control were diluted 100-fold with a fresh medium and were each added at 4 μL per well, followed by culturing for 24 hours.
The next day, the culture supernatant was removed, and a 4% paraformaldehyde phosphate buffer solution (from FUJIFILM Wako) was added at 20 μL per well. The plate was allowed to stand for 30 minutes at room temperature to thus immobilize the cells. Then, the supernatant was removed, and 0.1% Triton X-100 (from Amersham Biosciences)-containing Phosphate buffered saline (PBS) was added at 20 μL per well. After allowing the plate to stand at room temperature for 10 minutes, the supernatant was removed, and the wells were washed twice in total by adding PBS at 25 μL per well and removing the supernatant. The washing operations below were performed in the same manner. Next, the supernatant was removed, and 0.5% sodium dodecyl sulfate (SDS; from ThermoFisher Scientific)-containing PBS was added at 20 μL per well. After allowing the plate to stand at room temperature for 10 minutes, the plate was centrifuged to remove the supernatant. After washing with PBS, the supernatant was removed by centrifugation, and a blocking solution (PVDF Blocking Reagent for Can Get Signal; from TOYOBO) was added at 20 μL per well. After allowing the plate to stand for 30 minutes at room temperature, the supernatant was removed by centrifugation, and a solution obtained by diluting an anti-Ras (G12V Mutant Specific) antibody (Ras (G12V Mutant Specific) (D2H12) Rabbit mAb; from Cell Signaling Technology; 500-fold dilution) and an anti-3-actin antibody (Anti-beta Actin antibody; from Abcam; 5,000-fold dilution) with Can Get Signal Solution 2 (from TOYOBO) was added at 15 μL per well as primary antibodies. The plate was allowed to stand overnight at 4° C.
The next day, the supernatant was removed by centrifugation, and the plate was washed with PBS. The supernatant was removed by centrifugation, and a solution obtained by diluting an anti-rabbit IgG antibody (IRDye 800CW Goat anti-Rabbit IgG; from LI-COR Biosciences) and an anti-mouse IgG antibody (IRDye 680RD Donkey anti-Mouse IgG; from LI-COR Biosciences) 1,000-fold with Can Get Signal Solution 2 was added at 15 μL per well as secondary antibodies. After allowing the plate to stand at room temperature for an hour, the supernatant was removed by centrifugation, and the plate was washed with PBS. After removing the supernatant, the plate was dried as it was with air at room temperature for two hours or more, and the 700-nm and 800-nm fluorescent signals were measured with Aerius (from LI-COR Biosciences).
With the RAS G12V signaling value at the time of addition of DMSO corrected with the signaling value of 3-actin taken as 0% and with the RAS G12V signaling value at the time of addition of Example compound 17 of a final concentration of 1 μM taken as 100%, the RAS G12V degradation rates were calculated. The 50% degradation values (DC50) were calculated by Sigmoid-Emax model nonlinear regression analysis.

[1] = KRAS G12V mutant-positive, 3D spheroid, six days, CellTiter-Glo 2.0

T1 sequence (P01116 1-188 isoform P01116-2 G12V): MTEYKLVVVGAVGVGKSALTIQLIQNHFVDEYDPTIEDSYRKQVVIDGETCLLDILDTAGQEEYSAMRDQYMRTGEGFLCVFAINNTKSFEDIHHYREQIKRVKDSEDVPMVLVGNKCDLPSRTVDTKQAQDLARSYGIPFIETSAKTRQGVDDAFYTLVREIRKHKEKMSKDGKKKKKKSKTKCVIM

SMILES | DC50 (RAS G12V) [nM] | IC50 (PA-TU-8902 cells; [1]) [nM] | IC50 (PA-TU-8902 cells) [nM]
CO[C@@H](C)COc1cc(OC2CN(C(=O)N3CC(CN(C)C)C3)C2)c2cc(C3CC3)c(-c3c(C)c(F)cc4[nH]ncc34)c(OCc3ccc(-c4cn([C@H](C(=O)N5C[C@H](O)C[C@H]5C(=O)N[C@@H](CO)c5ccc(-c6scnc6C)cc5)C(C)C)nn4)cc3)c2n1 (atropisomer, axis not shown; (M)) [Example 14, (4R)-1-[(2S)-2-(4-{4-[({(7M)-6-cyclopropyl-4-[(1-{3-[(dimethylamino)methyl]azetidine-1-carbonyl}azetidin-3-yl)oxy]-7-(6-fluoro-5-methyl-1H-indazol-4-yl)-2-[(2S)-2-methoxypropoxy]quinolin-8-yl}oxy)methyl]phenyl}-1H-1,2,3-triazol-1-yl)-3-methylbutanoyl]-4-hydroxy-N-{(1R)-2-hydroxy-1-[4-(4-methyl-1,3-thiazol-5-yl)phenyl]ethyl}-L-prolinamide] | 10 | 47 | 
Cc1ncsc1-c1ccc([C@H](CO)NC(=O)[C@@H]2C[C@@H](O)CN2C(=O)[C@H](C(C)C)n2cc(-c3ccc(COc4c(-c5c(C)c(F)cc6[nH]ncc56)c(C5CC5)cc5c(N6CC[C@H]6C(N)=O)nc(OC6CCOCC6)nc45)cc3)nn2)cc1 [Example 35] | 23 | 32 | 
CO[C@@H](C)COc1nc(OC2CN(C(=O)NCCN(C)C)C2)c2cc(C3CC3)c(-c3c(C)c(F)cc4[nH]ncc34)c(OCc3ccc(C(=O)N[C@H](C(=O)N4C[C@H](O)C[C@H]4C(=O)N[C@@H](CO)c4ccc(-c5scnc5C)cc4)C(C)C)cc3)c2n1 [Example 40, N-{4-[({(7M)-6-cyclopropyl-4-[(1-{[2-(dimethylamino)ethyl]carbamoyl}azetidin-3-yl)oxy]-7-(6-fluoro-5-methyl-1H-indazol-4-yl)-2-[(2S)-2-methoxypropoxy]quinazolin-8-yl}oxy)methyl]benzoyl}-L-valyl-(4R)-4-hydroxy-N-{(1R)-2-hydroxy-1-[4-(4-methyl-1,3-thiazol-5-yl)phenyl]ethyl}-L-prolinamide] | 76 |  | 100

Continued, in another order:

DC50 (RAS G12V) [nM] | SMILES | IC50 (PA-TU-8902 cells; [1]) [nM] | IC50 (PA-TU-8902 cells) [nM]
30 | CO[C@@H](C)COc1cc(OC2CN(C(=O)CCCN(C)C)C2)c2cc(C3CC3)c(-c3c(C)c(F)cc4[nH]ncc34)c(OCc3ccc(-c4cn([C@H](C(=O)N5C[C@H](O)C[C@H]5C(=O)N[C@@H](CO)c5ccc(-n6cncn6)cc5)C(C)C)nn4)cc3)c2n1 (atropisomer, axis not shown; (M)) [Example 41, (4R)-1-[(2S)-2-(4-{4-[({(7M)-6-cyclopropyl-4-({1-[4-(dimethylamino)butanoyl]azetidin-3-yl}oxy)-7-(6-fluoro-5-methyl-1H-indazol-4-yl)-2-[(2S)-2-methoxypropoxy]quinolin-8-yl}oxy)methyl]phenyl}-1H-1,2,3-triazol-1-yl)-3-methylbutanoyl]-4-hydroxy-N-{(1R)-2-hydroxy-1-[4-(1H-1,2,4-triazol-1-yl)phenyl]ethyl}-L-prolinamide] | 52 | 
89 | Cc1ncsc1-c1ccc([C@H](CO)NC(=O)[C@@H]2C[C@@H](O)CN2C(=O)[C@H](C(C)C)n2cc(-c3ccc(COc4c(-c5c(C)c(F)cc6[nH]ncc56)c(C5CC5)cc5c(NC6CN(c7ncccn7)C6)nc(OC6CCOCC6)nc45)cc3)nn2)cc1 [Example 15, (4R)-1-[(2S)-2-{4-[4-({[(7M)-6-cyclopropyl-7-(6-fluoro-5-methyl-1H-indazol-4-yl)-2-[(oxan-4-yl)oxy]-4-{[1-(pyrimidin-2-yl)azetidin-3-yl]amino}quinazolin-8-yl]oxy}methyl)phenyl]-1H-1,2,3-triazol-1-yl}-3-methylbutanoyl]-4-hydroxy-N-{(1R)-2-hydroxy-1-[4-(4-methyl-1,3-thiazol-5-yl)phenyl]ethyl}-L-prolinamide] | 161 | 
8 | Cc1ncsc1-c1ccc([C@H](CO)NC(=O)[C@@H]2C[C@@H](O)CN2C(=O)[C@H](C(C)C)n2cc(-c3ccc(COc4c(-c5c(C)c(F)cc6[nH]ncc56)c(C5CC5)cc5c(NCc6cccnc6)nc(OC6CCOCC6)nc45)cc3)nn2)cc1 [Example 29] | 63 | 
